Assay results: PubChem BioAssay AID2252 (Southern Research Specialized Biocontainment Screening …, 2010)
Where “and” joins values, the source holds several entries; their conditions need not be identical. Identical values can stand only once.

system: THP-1 viability, CellTiter-Glo luminescence, 72 h; assay: PubChem AID 2252

Structure (SMILES) | EC50
NC1=NC[C@H](c2ccccc2)N1CCCCC1CCCCC1 | 6.36 µM
C#CCOCCOCCOCCNc1nc(N2CCN(C(=O)[C@H]([C@@H](C)CC)n3cc([C@@H](N)Cc4ccc(O)cc4)nn3)CC2)nc(N2CCN(C(=O)[C@H](Cc3cc4ccccc4[nH]3)n3cc([C@@H](N)CC(C)C)nn3)CC2)n1 | < 0.1 µM
CNCCCC1c2ccccc2C=Cc2ccccc21 | 24.5 µM
Cn1ncnc2c(=O)n(C)c(=O)nc1-2 | 1.38 µM
CN(C)CCCN1c2ccccc2CCc2ccc(Cl)cc21 | 18.4 µM
CCOC(=O)c1cc(-c2ccc(F)cc2)n(CCC(=O)NC2CCN(Cc3ccccc3)CC2)c1C | 18.9 µM
O=C(C[n+]1cccc(CNC(=O)c2ccc(OC(F)F)cc2)c1)Nc1ccc(SC(F)F)cc1 | 7.22 µM
O=[N+]([O-])c1cc(F)c2cccnc2c1O | 22.9 µM
CCCCNC(=S)Nc1ccc([N+](=O)[O-])cc1 | 28.8 µM
Cc1cccn2c(=O)c(C=O)c(Cl)nc12 | 26.8 µM
C[C@H]1O[C@@H](n2cc(F)c(=O)[nH]c2=O)[C@H](O)[C@@H]1O | 26.7 µM
COc1ccccc1N1CCN(Cc2ccc(O)c3ncccc23)CC1 | 2.61 µM
Cc1ccc(C(=O)NNC(=S)NC(=O)COc2ccccc2)cc1 | 15.1 µM
Cc1c2ccncc2c(C)c2c1[nH]c1ccccc12 | 2.72 µM
CCc1ccc(CNCc2ccc(OCC(O)CN(C)Cc3ccccc3)cc2)nc1 (stereo not given) | 23 µM
CCOc1ccc(N2C(=O)CN(O)C=C3N=c4ccccc4=C32)cc1 | 39.3 µM
CN1CCN(C(c2cccc(Cl)c2)c2ccccc2Cl)CC1 (stereo not given) | 35 µM
CC(C)N=C(N)N=C(N)Nc1ccc(Cl)cc1 | 35.1 µM
O=C(N/N=C/c1cc(Br)ccc1O)c1ccccc1Cl | 1.49 µM
COc1ccc(C(C[N+](=O)[O-])C2(c3ccc(OC)c(OC)c3)C(=O)c3ccccc3C2=O)cc1 (stereo not given) | 9.85 µM
CCN(CC(O)COc1ccc(OCC(O)CN(CC)C2CCCCC2)cc1)C1CCCCC1 (stereo not given) | 37.4 µM
CCCCCCCCCCCCCCCC[n+]1ccc(/C=N/O)cc1 | 0.3 µM

Structure (SMILES) | EC50
COc1ccc(Nc2cc(C)nc(NCc3ccccc3)n2)cc1 | 4.79 µM
CCOC(=O)C1=C(c2ccccc2)NC(N)=NC1c1ccc(OCc2ccc(C(=O)OC)cc2)cc1 (stereo not given) | 7.56 µM
O=C(N/N=C/c1cc(Cl)ccc1O)c1cccnc1 | 2.87 µM
CCc1c(C)n([O-])c2c([n+]1=O)CCCCC2 | < 0.1 µM
COc1cc2c(cc1O)[C@H](Cc1ccc(Oc3cc(C[C@@H]4NCCc5cc(OC)c(O)cc54)ccc3O)cc1)NCC2 | 48.3 µM
Oc1cccc(C=NCc2ccccc2)c1O | 38.9 µM
C#CCOCCOCCOCCNc1nc(N2CCN(C(=O)CCCCCCCCCCNC(=O)[C@H](CCCCN)n3cc(C)nn3)CC2)nc(N2CCN(C(=O)CCCCCCCCCCNC(=O)[C@@H]([C@H](C)CC)n3cc(CCCCCN)nn3)CC2)n1 | 12.7 µM
Oc1c(CN2CCCCC2)cc(Br)c2cccnc12 | 2.65 µM
O=C(C[n+]1cc(-c2ccccc2)n2c1CCC2)Nc1nc(-c2ccc(F)cc2)cs1 | 32.4 µM
COc1ccc(Nc2c3c(nc4ccccc24)CCC3)cc1 | 3.42 µM
NC(=NCCCCCCN=C(N)/N=C(\N)Nc1ccc(Cl)cc1)/N=C(\N)Nc1ccc(Cl)cc1 | 3.5 µM and 1.62 µM and 3.91 µM
Cc1cc(OCCCCCN2CCCC2)ccc1Cl | 48.7 µM
CN(C)CCCN1c2ccccc2Sc2ccc(Cl)cc21 | 5.64 µM and 12.4 µM
COc1ccc(CNCCC(c2ccccc2)c2ccc3c(c2)OCO3)cc1 (stereo not given) | 13.4 µM
Cc1ccc(C(=O)N2C(=S)C(c3ccc(F)cc3)=NC23CCN(C)CC3)cc1 | 16.7 µM
Oc1cccc2ccc(Nc3ccccn3)nc12 | 1.75 µM
O=C(Nc1csc(Cl)c1)c1ccccc1 | < 0.1 µM
O=C(N/N=C\c1cccc([N+](=O)[O-])c1O)C1COc2ccccc2O1 (stereo not given) | 25.4 µM
COC(=O)C(C)NC(=S)N1CCN(c2c(F)cc3c(=O)c(C(=O)O)cn(C4CC4)c3c2OC)CC1C (stereo not given) | 36.9 µM
c1ccc(Nc2ccnc(Nc3ccccc3)n2)cc1 | 41.7 µM
CN(C)c1ccc(O)c2c1CC1CC3C(N(C)C)C(=O)C(C(N)=O)=C(O)[C@@]3(O)C(=O)C1=C2O (stereo not given in full) | 33.7 µM
O=C(CSc1ccc(Cl)cc1)c1ccco1 | < 0.1 µM

Structure (SMILES) | EC50
CCCCCCCCCCOC(=O)Cn1c(COc2cccc(OC)c2)[n+](C)c2ccccc21 | 2.38 µM
O=C(N/N=C/c1ccccc1O)c1ccncc1 | 15.2 µM
Cc1ccccc1-n1ncc2c([N+](=O)[O-])cc([N+](=O)[O-])cc21 | 26.6 µM
O=C(Nc1nnc(-c2cccs2)o1)c1cccc(C(F)(F)F)c1 | 14.3 µM
COc1ccccc1C(=O)NNC1=C(C(=O)C(F)(F)F)CCC1 | 15.1 µM
CCCCCCCCCCCCOC(=O)C[N+](C)(C)C | 23.7 µM
Cc1ccc2nc(/C(C#N)=C\c3ccc([N+](=O)[O-])o3)[nH]c2c1 | 1.25 µM
O=C(CCN1CCOCC1)c1ccc(Br)cc1 | 43.2 µM
C(=N\Nc1nc2ccccc2[nH]1)/c1ccc2ncccc2c1 | 15.6 µM
Oc1ccc(C[C@H]2CNCCN2CCCCC2CCCCC2)cc1 | 8.99 µM
Cc1nc(N=Nc2ccc(O)cc2)n[nH]1 | 28.2 µM
Cc1ccc(S(=O)(=O)CCC(=O)c2ccc(O)cc2O)cc1 | 16 µM
O=C(CCl)Nc1nccs1 | 14.4 µM
c1cncc(CSc2ccc(-c3cccs3)nn2)c1 | 35.2 µM
COc1nccnc1NS(=O)(=O)c1ccc(N=Cc2c(C)[nH]n(-c3ccc(C)c(C)c3)c2=O)cc1 | 14.4 µM
Cc1cc([N+](=O)[O-])nn1CC(=O)N/N=C/c1ccccc1O | 6.62 µM
Cc1ccc(-n2c(-c3ccc(Br)cc3)c[n+]3c2CCc2ccc4cccnc4c2-3)cc1 | 0.76 µM
c1ccc2c(NCCc3c[nH]c4ccccc34)c3ccccc3nc2c1 | 4.35 µM
Cc1cc(N2CCC(C)CC2)nc2cccc(O)c12 | 26.4 µM
CCC(C)(C)c1ccc(OCCCC[n+]2ccccc2)c(C(C)(C)CC)c1 | 0.97 µM
c1ccc(CNc2nc(N3CCN(Cc4ccccc4)CC3)nc3ccccc23)cc1 | 8.41 µM
Fc1cccc(Nc2c3c(nc4ccccc24)CCC3)c1 | 26.3 µM

Structure (SMILES) | EC50
CCn1ncc(/C=N\NC(=O)c2csc3ccccc23)c1C | 19.1 µM
CCCCCCCCC[n+]1cccc2c3ccccc3ccc21 | 0.82 µM
Oc1ccc(C[C@@H]2CNCCN2CCC23CC4CC(CC(C4)C2)C3)cc1 | 9.86 µM
Cc1cc2oc(=O)cc(CN3CCN(C/C=C/c4ccccc4)CC3)c2cc1O | 18.6 µM
O=C1C(Cl)=C(NCc2cccnc2)C(=O)c2ccccc21 | 12.5 µM
CC(C)CCC(CCNCc1ccccn1)c1ccc(Cl)cc1 (stereo not given) | 16.2 µM
C[C@H]1c2cccc(O)c2C(O)=C2C(=O)C3(O)C(O)=C(C(N)=O)C(=O)[C@@H](N(C)C)[C@@H]3[C@@H](O)[C@@H]21 (stereo not given in full) | 30.3 µM
O=C(CC1NCCc2ccccc21)Nc1ccc(Oc2ccccc2)cc1 (stereo not given) | 14.3 µM
CCCCCCCCn1ccc(=N)cc1 | 5.47 µM
Cc1ccc2c(c1)c1c(n2CC(O)CN2CCC(C)CC2)CCCC1 (stereo not given) | 16 µM
Oc1ccc(CN2CCN(Cc3ccccc3)CC2)c2cccnc12 | 9.96 µM
OC(CNCCc1ccccc1)COc1ccc(OCC(O)CNCCc2ccccc2)cc1 (stereo not given) | 7.35 µM
CC1CCN(CCCNC(=O)c2ccc3c(=O)n(Cc4ccc(Cl)cc4)c(=S)[nH]c3c2)CC1 | 16.8 µM
O=C(N/N=C/c1ccccn1)c1cccs1 | 26.4 µM
Cc1[nH]nc2c1C(C1CC=CCC1)C(C#N)=C(N)O2 (stereo not given) | 13.9 µM
CC1CCCC(NC(=O)COC(=O)Cc2c[nH]c3ccccc23)C1C (stereo not given) | < 0.1 µM
COC(=O)c1ccc(Cn2c(O)c(N=NC(N)=S)c3ccccc32)o1 | 12.7 µM
CN1CCN(C2=Cc3ccccc3Sc3cc(F)c(F)cc32)CC1 | 14.8 µM
CC[n+]1c(/C=C/N(C)c2ccccc2)n(-c2ccccc2)c2ccc(-c3nc4ccccc4s3)cc21 | 0.44 µM
N#Cc1ccc(C2=NC(C(F)(F)F)(C(F)(F)F)c3c(n(Cc4ccco4)c(=O)[nH]c3=O)N2)cc1 | 31.2 µM
Clc1ccc2[nH]c3c(c2c1)CCc1cn[nH]c1-3 | 31.3 µM
Cc1ccc(-c2cc(-c3ccc(C)cc3)[n+](-c3ccccc3)c(-c3ccc(C)cc3)c2)cc1 | 0.49 µM

Structure (SMILES) | EC50
CN(C)CCCN(C(=O)CCc1ccccc1)c1nc2ccc(Br)cc2s1 | 13.4 µM
CCCCCCCCCn1c2c(c(=N)c3c1CCC3)CCC2 | 0.52 µM
COc1cc(/C=N/NC(=O)c2cncc(Br)c2)cc([N+](=O)[O-])c1O | 38.1 µM
COc1cc(/C=N/N=C(N)N)ccc1OCc1ccc(Cl)cc1 | 7.26 µM
C#CCOCCOCCOCCNc1nc(N2CCN(C(=O)CCCCCCCCCCNC(=O)[C@H]([C@@H](C)CC)n3cc(CCCCN=C(N)N)nn3)CC2)nc(N2CCN(C(=O)CCCCCCCCCCNC(=O)[C@@H]([C@H](C)O)n3cc(C)nn3)CC2)n1 | 2.98 µM
CCc1cccc2c1Sc1ccccc1CC2N1CCNCC1 (stereo not given) | 9.72 µM
CN1CCN(C2Cc3ccc(Cl)cc3Sc3ccc(F)cc32)CC1 (stereo not given) | 11.6 µM
CC1CC(C)CN(CCOc2ccc(Cl)cc2Cl)C1 (stereo not given) | 29.4 µM
Oc1ccc(C=Nc2cccc3ncccc23)c(O)c1 | 3.33 µM
CC(C(=O)NC1C=CS(=O)(=O)C1)N1C(=O)/C(=C/c2cccc(Cl)c2)SC1=S (stereo not given) | 24.5 µM
CCOC(=O)c1c(N)sc(C(=O)Nc2ccc3c(c2)OCO3)c1C | 42.7 µM
CCC(=O)c1ccc(OCC(O)CNCCc2ccc(Cl)cc2)cc1 (stereo not given) | 28.9 µM
Oc1c(Cl)cc(CN2CCCCC2)c2cccnc12 | 0.71 µM
CN1CCN(c2ccccc2NC(=O)c2sc3ccccc3c2Cl)CC1 | 24.9 µM
C#CCOCCOCCOCCNc1nc(N2CCN(C(=O)CCCCCCCCCCNC(=O)Cn3cc(CCCCCN)nn3)CC2)nc(N2CCN(C(=O)CCCCCCCCCCNC(=O)[C@H]([C@@H](C)CC)n3cc(CCCCCN)nn3)CC2)n1 | 14.5 µM
CC(=O)NCc1ccc(C(=O)CCl)cc1 | 33.3 µM
COc1ccc(C(=O)NNC(=S)NC(=O)c2ccccc2)cc1 | 6.81 µM
Cc1nonc1C(=O)N/N=C/c1ccc(O)cc1O | 8.05 µM
O=C(CSc1nc2ccccc2s1)N/N=C/c1cc([N+](=O)[O-])ccc1O | 27.5 µM
O=C(Nc1cccc(NC(=O)c2ccccc2Cl)c1)c1ccc([N+](=O)[O-])o1 | 2.11 µM
CCCCc1ccc(NC2=NCCCS2)cc1 | 21.3 µM
C=C(C)COc1ccc2c(C)c(CCC(=O)NC3CC3)c(=O)oc2c1 | < 0.1 µM
